From patent US10081615B2, “Sulfamate derivative compounds for use in treating or alleviating pain” (Bio-Pharm Solutions Co., Ltd., priority 2013, dated 2018)
Read-outs that look alike come from different tables or passages of the source.

Legend:
[1] = test system: CFA-induced pain model; assay: Antiallodynic activity on Complete Freund's Adjuvant (CFA)-induced inflammatory pain model (von Frey); assay type: in vivo, Sprague-Dawley rats; conditions: ip
[2] = test system: hot plate withdrawal latency; assay: Hot-plate test; assay type: in vivo, ICR mice; conditions: mouse, oral
Protocol: To examine the pain relief effect of the sulfamate derivative compounds, a hot-plate test was conducted referring to Current Protocols in Neuroscience; Behavioral Neuroscience Unit 8.9.
ICR mice (male, 30-35 g; Orient Bio, Korea) were habituated before the test in the test room for 1 hour. Animals were fasted 2 hr before administration of the compounds. […] All compounds were dissolved in a vehicle of 30% (v/v) PEG 400 or 20% (v/v) Tween 80. The control group was treated with vehicle without treatment compounds.
0.5 hr after the administration of compounds, the mice were put on a hot plate pre-heated to 55±1° C. (Hu, X. et al, 2008), and then, the withdrawal latency was measured (cut-off time: 30 sec) until the point when each mouse was taking a paw off from the plate, shaking, licking a paw or hind leg, or jumping from the plate.

[3] = Rattus norvegicus, 0.5 h, read-out: CFA model: ED50 mg/kg

SMILES: CC1(C)Oc2ccccc2[C@@H](COS(N)(=O)=O)O1 [Example 2, ((S)-2,2-dimethyl-4H-benzo[d][1,3]dioxin-4-yl)methyl sulfamate]
- ED50 ([1]; rat, intraperitoneal, 0.5 h, read-out: CFA model: ED50): 18.8 mg/kg
- ED50 ([2]; 0.5 h): 170 mg/kg

SMILES: CC1(C)Oc2ccccc2[C@H](COS([NH-])(=O)=O)O1.[Na+] [Example 58, Sodium (R)-(((2,2-dimethyl-4H-benzo[d][1,3]dioxin-4-yl)methoxy)sulfonyl)amide Trihydrate]
- ED50 [1, 3]: 23.3 mg/kg

SMILES: CC1(C)Oc2ccccc2C(COS([NH-])(=O)=O)O1.[Na+] (centres unmarked) [Example 60, Sodium (((2,2-dimethyl-4H-benzo[d][1,3]dioxin-4-yl)methoxy)sulfonyl)amide Trihydrate]
- ED50 ([1]; Rattus norvegicus, 1 h, read-out: CFA model: ED50 mg/kg): 25 mg/kg
- Hot plate test: effect (%) compared to control ([2]; 170 mg/kg administered, time not given): (196.2%)

SMILES: [NH-]S(=O)(=O)OC[C@H]1OC2(CCCC2)Oc2ccccc21.[Na+] [Example 65, Sodium (S)-(((4H-spiro[benzo[d][1,3]dioxine-2,1′-cyclopentan]-4-yl)methoxy)sulfonyl)amide]
- ED50 [1, 3]: 89.1 mg/kg
- melting point: 121.2 to 131.9 °C

SMILES: CC1(C)Oc2ccccc2[C@H](COS([NH-])(=O)=O)O1.[K+] [Example 70, Potassium (R)-(((2,2-dimethyl-4H-benzo[d][1,3]dioxin-4-yl)methoxy)sulfonyl)amide]
- response vs control in vivo at 25 mg/kg ([1]; Rattus norvegicus, 0.5 h, read-out: CFA model: effect (%) compared to control): 10.5%
